Experimental findings from patent US20250206732A1, “COMPOUNDS AND METHODS FOR THE TARGETED DEGRADATION OF KRAS” (Arvinas Operations, Inc., priority 2022, published 2025) are described below.

The Dmax is the largest share of the target that was removed. Broadly, the DC50 is the concentration giving 50% degradation. Read a high DC50 as degradation only at high concentration.

This experiment has as its target T1, AsPC-1 HiBiT-KRASG12D (Homo sapiens, UniProt P01116, G12D).
T1 construct: insert the HiBiT tag onto the N-terminus of one or more of the endogenous KRAS alleles; endogenous in cells; host or cells: AsPC-1 (ATCC CRL-1682), CRISPR-Cas9 knock-in clone, one tagged allele
Briefly: HiBiT degradation assay (G12D), AsPC-1 HiBiT-KRASG12D cells. Type of experiment: cell-based. Conditions: 24 hours treatment; for Dmax: ASPC1, AsPC-1 HiBiT-KRASG12D cells, maximum degradation observed; for DC50: AsPC-1 HiBiT-KRASG12D cells, HiBiT luminescence. Put shortly: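 AsPC-1 cells (homozygous G12D) carrying a CRISPR knock-in N-terminal HiBiT tag on endogenous KRAS were treated with compounds for 24 hours at 37° C, 5% CO2, in triplicate. Alamar blue viability was read first, then cells were washed and lysed with Nano-Glo HiBiT reagent for 45 minutes before luminescence reading.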

T1 sequence (P01116 1-188 isoform P01116-2 G12D): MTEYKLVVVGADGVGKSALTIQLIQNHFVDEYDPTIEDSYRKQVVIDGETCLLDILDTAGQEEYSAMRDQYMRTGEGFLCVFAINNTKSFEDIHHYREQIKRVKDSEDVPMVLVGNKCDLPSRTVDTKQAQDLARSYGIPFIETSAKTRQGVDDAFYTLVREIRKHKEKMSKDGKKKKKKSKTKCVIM

For `CCc1cccc2cc(O)cc(-c3ncc4c(N5CCCCCC5)nc(OC[C@]56CCCN5[C@H](COC(=O)N5CCC(Oc7cc([C@H](C(=O)N8C[C@H](O)C[C@H]8C(=O)N[C@@H](C)c8ccc(-c9scnc9C)cc8)C(C)C)on7)CC5)CC6)nc4c3F)c12` [Compound 286, [(3S,8R)-8-[[4-(azepan-1-yl)-7-(8-ethyl-3-hydroxy-1-naphthyl)-8-fluoro-pyrido[4,3-d]pyrimidin-2-yl]oxymethyl]-1,2,3,5,6,7-hexahydropyrrolizin-3-yl]methyl 4-[5-[(1R)-1-[(2S,4R)-4-hydroxy-2-[[(1S)-1-[4-(4-methylthiazol-5-yl)phenyl]ethyl]carbamoyl]pyrrolidine-1-carbonyl]-2-methyl-propyl]isoxazol-3-yl]oxypiperidine-1-carboxylate], the Dmax fell in the range of 80 to 100% and the DC50 is < 600 nM. For `Cc1ncsc1-c1ccc([C@H](C)NC(=O)[C@@H]2C[C@@H](O)CN2C(=O)[C@H](c2cc(OC3CN(C(=O)OC[C@@H]4CC[C@@H](COc5nc(N6CC7CCC(C6)N7)c6cnc(-c7cc(O)cc(Cl)c7C7CC7)c(F)c6n5)N4C)C3)no2)C(C)C)cc1` [Compound 287], in that order: < 20% and 1000 to 3000 nM. The like results for `CCc1cccc2cc(O)cc(-c3ncc4c(N5CC6CCC(C5)N6)nc(OC[C@@H]5CC[C@@H](COC(=O)N6CCN(c7cc([C@@H](C(=O)N8C[C@H](O)C[C@H]8C(=O)N[C@@H](C)c8ccc(-c9scnc9C)cc8)C(C)C)on7)CC6)N5C)nc4c3F)c12` [Compound 289, [(2S,5S)-5-[[4-(3,8-diazabicyclo[3.2.1]octan-3-yl)-7-(8-ethyl-3-hydroxy-1-naphthyl)-8-fluoro-pyrido[4,3-d]pyrimidin-2-yl]oxymethyl]-1-methyl-pyrrolidin-2-yl]methyl 4-[5-[(1S)-1-[(2S,4R)-4-hydroxy-2-[[(1S)-1-[4-(4-methylthiazol-5-yl)phenyl]ethyl]carbamoyl]pyrrolidine-1-carbonyl]-2-methyl-propyl]isoxazol-3-yl]piperazine-1-carboxylate] were, in that order, 20 to 60% and 1000 to 3000 nM.

`CCc1cccc2cc(O)cc(-c3ncc4c(N5CC6CCC(C5)N6C=O)nc(OCCN5CCC6(CC5)CN(c5cc([C@H](C(=O)N7C[C@H](O)C[C@H]7C(=O)N[C@@H](C)c7ccc(-c8scnc8C)cc7)C(C)C)on5)C6)nc4c3F)c12` [Compound 290, (2S,4R)-1-[(2R)-2-[3-[7-[2-[7-(8-ethyl-3-hydroxy-1-naphthyl)-8-fluoro-4-(8-formyl-3,8-diazabicyclo[3.2.1]octan-3-yl)pyrido[4,3-d]pyrimidin-2-yl]oxyethyl]-2,7-diazaspiro[3.5]nonan-2-yl]isoxazol-5-yl]-3-methyl-butanoyl]-4-hydroxy-N-[(1S)-1-[4-(4-methylthiazol-5-yl)phenyl]ethyl]pyrrolidine-2-carboxamide]: the DC50 was > 3000 nM.

With `CCc1cccc2cc(O)cc(-c3ncc4c(N5CC6CCC(C5)N6)nc(OC[C@@H]5CC[C@@H](COC(=O)N6CC(Oc7cc([C@@H](C(=O)N8C[C@H](O)C[C@H]8C(=O)N[C@@H](C)c8ccc(-c9scnc9C)cc8)C(C)C)on7)C6)N5C)nc4c3F)c12` [Compound 291], the Dmax is < 20% and the DC50 was < 600 nM. For `C#Cc1c(F)ccc2cc(O)cc(-c3ncc4c(N5CC6CCC(C5)N6)nc(OC[C@]56CCCN5[C@H](COC(=O)N5CC(Oc7cc([C@H](C(=O)N8C[C@H](O)C[C@H]8C(=O)N[C@@H](C)c8ccc(-c9scnc9C)cc8)C(C)C)on7)C5)CC6)nc4c3F)c12` [Compound 292], the Dmax was in the range of 80 to 100% and the DC50 was < 600 nM. On to `CCc1cccc2cc(O)cc(-c3ncc4c(N5CC6CCC(C5)N6)nc(OCCN5CCC(CN6CCN(c7cnc(C(=O)N[C@H](C(=O)N8C[C@H](O)C[C@H]8C(=O)N[C@@H](C)c8ccc(-c9scnc9C)cc8)C(C)(C)C)cn7)CC6)CC5)nc4c3F)c12` [Compound 293], for which the Dmax fell in the range of 60 to 80% and the DC50 was < 600 nM. For `CCc1cccc2cc(O)cc(-c3ncc4c(N5CC6CCC(C5)N6)nc(OC[C@@H]5CC[C@@H](COC(=O)N6CC(Oc7cc([C@H](C(=O)N8C[C@H](O)C[C@H]8C(=O)N[C@@H](C)c8ccc(-c9scnc9C)cc8)C(C)C)on7)C6)N5C)nc4c3F)c12` [Compound 294], in that order: 80 to 100% and < 600 nM. `CCc1cccc2cc(O)cc(-c3ncc4c(N5CC6CCC(C5)N6)nc(OC[C@]56CCCN5[C@H](COC(=O)N5C[C@H](C)N(c7cc([C@H](C(=O)N8C[C@H](O)C[C@H]8C(=O)N[C@@H](C)c8ccc(-c9scnc9C)cc8)C(C)C)on7)C[C@H]5C)CC6)nc4c3F)c12` [Compound 296, [(3S,8R)-8-[[4-(3,8-diazabicyclo[3.2.1]octan-3-yl)-7-(8-ethyl-3-hydroxy-1-naphthyl)-8-fluoro-pyrido[4,3-d]pyrimidin-2-yl]oxymethyl]-1,2,3,5,6,7-hexahydropyrrolizin-3-yl]methyl (2R,5S)-4-[5-[(1R)-1-[(2S,4R)-4-hydroxy-2-[[(1S)-1-[4-(4-methylthiazol-5-yl)phenyl]ethyl]carbamoyl]pyrrolidine-1-carbonyl]-2-methyl-propyl]isoxazol-3-yl]-2,5-dimethyl-piperazine-1-carboxylate]: the Dmax fell in the range of 80 to 100% and the DC50 is < 600 nM. The like results for `CCc1cccc2cc(O)cc(-c3ncc4c(N5CC6CCC(C5)N6)nc(OC[C@]56CCCN5[C@H](COC(=O)N5C[C@@H](C)N(c7cc([C@@H](C(=O)N8C[C@H](O)C[C@H]8C(=O)N[C@@H](C)c8ccc(-c9scnc9C)cc8)C(C)C)on7)C[C@@H]5C)CC6)nc4c3F)c12` [Compound 297, [(3S,8R)-8-[[4-(3,8-diazabicyclo[3.2.1]octan-3-yl)-7-(8-ethyl-3-hydroxy-1-naphthyl)-8-fluoro-pyrido[4,3-d]pyrimidin-2-yl]oxymethyl]-1,2,3,5,6,7-hexahydropyrrolizin-3-yl]methyl (2S,5R)-4-[5-[(1S)-1-[(2S,4R)-4-hydroxy-2-[[(1S)-1-[4-(4-methylthiazol-5-yl)phenyl]ethyl]carbamoyl]pyrrolidine-1-carbonyl]-2-methyl-propyl]isoxazol-3-yl]-2,5-dimethyl-piperazine-1-carboxylate] were, in that order, < 20% and < 600 nM. Turning to `CCc1cccc2cc(O)cc(-c3ncc4c(N5CC6CCC(C5)N6)nc(OC[C@@H]5CC[C@@H](COC(=O)N6CCN(c7cc([C@@H](C(=O)N8C[C@H](O)C[C@H]8C(=O)N[C@@H](C)c8ccc(-c9scnc9C)cc8)C(C)C)on7)[C@H](C)C6)N5C)nc4c3F)c12` [Compound 298, [(2S,5S)-5-[[4-(3,8-diazabicyclo[3.2.1]octan-3-yl)-7-(8-ethyl-3-hydroxy-1-naphthyl)-8-fluoro-pyrido[4,3-d]pyrimidin-2-yl]oxymethyl]-1-methyl-pyrrolidin-2-yl]methyl (3R)-4-[5-[(1S)-1-[(2S,4R)-4-hydroxy-2-[[(1S)-1-[4-(4-methylthiazol-5-yl)phenyl]ethyl]carbamoyl]pyrrolidine-1-carbonyl]-2-methyl-propyl]isoxazol-3-yl]-3-methyl-piperazine-1-carboxylate], the DC50 is > 3000 nM. As for `CCc1cccc2cc(O)cc(-c3ncc4c(N5CCCCCC5)nc(OC[C@]56CCCN5[C@H](COC(=O)N5CC(Oc7cc([C@H](C(=O)N8C[C@H](O)C[C@H]8C(=O)N[C@@H](C)c8ccc(-c9scnc9C)cc8)C(C)C)on7)C5)CC6)nc4c3F)c12` [Compound 300], the Dmax fell in the range of 80 to 100% and the DC50 was < 600 nM. The like results for `CCc1cccc2cc(O)cc(-c3ncc4c(N5CC6CCC(C5)N6)nc(OC[C@@H]5CC[C@@H](COC(=O)N6CCN(c7cc([C@H](C(=O)N8C[C@H](O)C[C@H]8C(=O)N[C@@H](C)c8ccc(-c9scnc9C)cc8)C(C)C)on7)[C@H](C)C6)N5C)nc4c3F)c12` [Compound 301, [(2S,5S)-5-[[4-(3,8-diazabicyclo[3.2.1]octan-3-yl)-7-(8-ethyl-3-hydroxy-1-naphthyl)-8-fluoro-pyrido[4,3-d]pyrimidin-2-yl]oxymethyl]-1-methyl-pyrrolidin-2-yl]methyl (3R)-4-[5-[(1R)-1-[(2S,4R)-4-hydroxy-2-[[(1S)-1-[4-(4-methylthiazol-5-yl)phenyl]ethyl]carbamoyl]pyrrolidine-1-carbonyl]-2-methyl-propyl]isoxazol-3-yl]-3-methyl-piperazine-1-carboxylate] were, in that order, 80 to 100% and < 600 nM. The like results for `CCc1cccc2cc(O)cc(-c3ncc4c(N5CC6CCC(C5)N6)nc(OC[C@]56CCCN5[C@H](COC(=O)N5C[C@H](C)N(c7cc([C@@H](C(=O)N8C[C@H](O)C[C@H]8C(=O)N[C@@H](C)c8ccc(-c9scnc9C)cc8)C(C)C)on7)C[C@H]5C)CC6)nc4c3F)c12` [Compound 302, [(3S,8R)-8-[[4-(3,8-diazabicyclo[3.2.1]octan-3-yl)-7-(8-ethyl-3-hydroxy-1-naphthyl)-8-fluoro-pyrido[4,3-d]pyrimidin-2-yl]oxymethyl]-1,2,3,5,6,7-hexahydropyrrolizin-3-yl]methyl (2R,5S)-4-[5-[(1S)-1-[(2S,4R)-4-hydroxy-2-[[(1S)-1-[4-(4-methylthiazol-5-yl)phenyl]ethyl]carbamoyl]pyrrolidine-1-carbonyl]-2-methyl-propyl]isoxazol-3-yl]-2,5-dimethyl-piperazine-1-carboxylate] were, in that order, 20 to 60% and 1000 to 3000 nM.

As to `C#Cc1c(F)ccc2cc(O)cc(-c3ncc4c(N5CC6CCC(C5)N6)nc(OC[C@]56CCCN5[C@H](COC(=O)N5CC(Oc7cc([C@@H](C(=O)N8C[C@H](O)C[C@H]8C(=O)N[C@@H](C)c8ccc(-c9scnc9C)cc8)C(C)C)on7)C5)CC6)nc4c3F)c12` [Compound 303], the Dmax fell in the range of 60 to 80% and the DC50 was < 600 nM.
